Columns and labels:
CYP1A2 = target: T1, CYP1A2 (Homo sapiens, UniProt P05177); experiment: Isozyme-specific CYP450 inhibition (Baculosomes); type: in vitro ADME; details: 1 μM, 60 min
T1 construct: purchased Thermo Fisher Scientific; host or cells: Baculosomes (microsomes of baculovirus-infected insect cells: own knowledge)
Description: (§1) Baculosomes® expressing CYP1A2, CYP2A6, CYP2B6, CYP2C9, CYP2C19, CYP2D6 and CYP3A4 human CYP450 isoenzymes were purchased from Thermo Fisher Scientific (Waltham, MA, USA). All reagents were handled and prepared according to the manufacturer’s protocol. ENT-A013 was tested at 1 μM. Enzymatic activity in the presence of ΕΝΤ-A013 was assessed based on the kinetic model for CYP1A2, CYP2A6, CYP2B6, CYP2C9, CYP2C19, CYP2D6 and CYP3A4 isoforms. Reactions took place in triplicates at 20 °C. Glucose-6-phosphate at 333 mM and glucose-6-phosphate-dehydrogenase at 30 U/mL in 100 mM potassium phosphate, pH 8.0 (regeneration system) converted NADP^+ (10 mM in 100 mM potassium phosphate, pH 8.0) into NADPH to initiate the CYP450 reaction. Upon the addition of the fluorescent substrate, immediately (<2 min), the fluorescence signal was monitored over time at suitable excitation and emission wavelengths by Lionheart FX (BioTek, Winooski, VT, USA) (Table S2). CYP450 inhibition (%) was determined based on the reaction rates (fluorescence intensity changes per unit time). A total of n = 60 measurements per minute were acquired for a total time of t = 60 min. % Inhibition= (1 − X/A) × 100%(1) where: X is the rate observed in the presence of test-compound; A is the rate observed in the presence of negative (solvent, DMSO) control.

CYP2B6 = target: T2, CYP2B6 (Homo sapiens, UniProt P20813); experiment: Isozyme-specific CYP450 inhibition (Baculosomes); type: in vitro ADME; details: 1 μM, 60 min
T2 construct: purchased Thermo Fisher Scientific; host or cells: Baculosomes (microsomes of baculovirus-infected insect cells: own knowledge)
Description: as §1

CYP2C9 = target: T3, CYP2C9 (Homo sapiens, UniProt P11712); experiment: Isozyme-specific CYP450 inhibition (Baculosomes); type: in vitro ADME; details: 1 μM, 60 min
T3 construct: purchased Thermo Fisher Scientific; host or cells: Baculosomes (microsomes of baculovirus-infected insect cells: own knowledge)
Description: as §1

CYP2D6 = target: T4, CYP2D6 (Homo sapiens, UniProt P10635); experiment: Isozyme-specific CYP450 inhibition (Baculosomes); type: in vitro ADME; details: 1 μM, 60 min
T4 construct: purchased Thermo Fisher Scientific; host or cells: Baculosomes (microsomes of baculovirus-infected insect cells: own knowledge)
Description: as §1

TrkB = target: T5, TrkB (Homo sapiens, UniProt Q16620); experiment: TrkB phosphorylation in NIH-3T3 cells stably transfected with TrkB; type: cell-based; details: 500 nM, 30′
T5 construct: expressed in transfected cells
Description: PC12 and HEK293T cells were obtained from LGC Promochem GmbH (Teddington, UK) and cultured under the conditions specified by the manufacturer. NIH3T3 cells were stably transfected with human TrkB plasmid. PC12 cells were grown in DMEM medium (11965084, Gibco, Grand Island, NY, USA) containing 10% Horse Serum (16050122, Gibco, Grand Island, NY, USA), 5% Fetal Bovine Serum (10270106, Gibco, Grand Island, NY, USA), 100 units/mL Penicillin and 0.1 mg/mL Streptomycin (15140122, Gibco, Grand Island, NY, USA) at 5% CO2 and 37 °C. Cells were used between passages 5–20. HEK293T and NIH3T3 cells were grown in the same medium as PC12 cells supplemented with 10% Fetal Bovine Serum and lacking Horse Serum. For transient transfection of HEK293T cells, lipofectamine was used and cells were transfected with human p75^NTR and Traf6 plasmids. To determine the intracellular activity of endogenous secretases, we tagged (tGFP) a truncated mutant (Tm) of APP containing the original amino acids sequence from M516 to N773. This Tm conserves the secretases cleavage sites, clathrin binding site, tau protein binding site, collagen binding site and some glycosylation sites critical for protein localization and intracellular trafficking. The cDNA of the TmAPP gene was amplified by PCR and subcloned into pturbo-GFP vector. […]

T3 sequence (P11712 whole entry): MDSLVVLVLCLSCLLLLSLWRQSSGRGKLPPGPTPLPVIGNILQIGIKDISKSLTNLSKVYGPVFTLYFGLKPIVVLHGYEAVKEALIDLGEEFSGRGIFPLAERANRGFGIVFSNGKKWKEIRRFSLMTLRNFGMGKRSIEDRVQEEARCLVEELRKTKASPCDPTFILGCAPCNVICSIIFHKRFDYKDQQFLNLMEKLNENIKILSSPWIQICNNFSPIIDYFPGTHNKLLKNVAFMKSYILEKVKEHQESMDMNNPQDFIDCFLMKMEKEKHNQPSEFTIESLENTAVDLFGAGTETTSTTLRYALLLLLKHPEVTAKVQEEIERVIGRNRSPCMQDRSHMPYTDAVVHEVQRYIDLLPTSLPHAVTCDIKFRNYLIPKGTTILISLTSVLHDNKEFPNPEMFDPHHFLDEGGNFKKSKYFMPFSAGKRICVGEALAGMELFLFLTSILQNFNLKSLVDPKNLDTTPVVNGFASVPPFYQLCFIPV
T5 sequence (Q16620 32-822): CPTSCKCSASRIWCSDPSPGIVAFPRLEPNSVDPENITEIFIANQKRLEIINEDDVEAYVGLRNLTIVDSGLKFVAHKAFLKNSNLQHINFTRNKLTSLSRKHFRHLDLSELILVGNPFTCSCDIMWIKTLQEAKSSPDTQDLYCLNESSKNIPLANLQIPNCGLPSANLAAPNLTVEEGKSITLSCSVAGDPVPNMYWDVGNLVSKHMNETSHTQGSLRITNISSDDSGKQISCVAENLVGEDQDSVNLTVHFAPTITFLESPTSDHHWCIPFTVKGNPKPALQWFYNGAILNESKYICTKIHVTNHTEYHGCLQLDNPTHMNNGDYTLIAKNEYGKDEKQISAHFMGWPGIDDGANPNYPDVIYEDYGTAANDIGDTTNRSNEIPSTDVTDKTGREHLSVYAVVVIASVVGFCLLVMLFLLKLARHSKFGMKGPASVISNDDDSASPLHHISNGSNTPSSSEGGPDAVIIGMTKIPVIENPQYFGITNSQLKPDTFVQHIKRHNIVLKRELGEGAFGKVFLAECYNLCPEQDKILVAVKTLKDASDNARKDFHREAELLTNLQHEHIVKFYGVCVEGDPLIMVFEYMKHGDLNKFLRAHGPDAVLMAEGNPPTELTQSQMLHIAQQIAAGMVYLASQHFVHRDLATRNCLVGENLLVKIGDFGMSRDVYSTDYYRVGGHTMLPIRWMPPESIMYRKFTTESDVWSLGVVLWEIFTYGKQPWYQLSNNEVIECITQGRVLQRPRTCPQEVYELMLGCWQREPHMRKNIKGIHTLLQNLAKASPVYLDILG
T1 sequence (P05177 2-516 limits assumed): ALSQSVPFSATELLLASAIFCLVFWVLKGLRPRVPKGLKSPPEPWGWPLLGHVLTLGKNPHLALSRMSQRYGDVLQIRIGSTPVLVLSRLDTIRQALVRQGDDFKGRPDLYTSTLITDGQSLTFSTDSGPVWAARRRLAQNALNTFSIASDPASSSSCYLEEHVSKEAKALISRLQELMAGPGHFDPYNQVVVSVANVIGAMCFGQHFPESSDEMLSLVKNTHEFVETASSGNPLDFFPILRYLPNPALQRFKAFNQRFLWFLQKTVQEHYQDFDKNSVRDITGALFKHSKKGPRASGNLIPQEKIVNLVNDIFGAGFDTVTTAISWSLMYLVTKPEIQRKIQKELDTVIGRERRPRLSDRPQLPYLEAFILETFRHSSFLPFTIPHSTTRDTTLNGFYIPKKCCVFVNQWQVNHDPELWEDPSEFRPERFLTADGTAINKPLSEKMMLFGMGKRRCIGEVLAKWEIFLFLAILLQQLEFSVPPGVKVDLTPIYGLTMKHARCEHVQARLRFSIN
T4 sequence (P10635 whole entry): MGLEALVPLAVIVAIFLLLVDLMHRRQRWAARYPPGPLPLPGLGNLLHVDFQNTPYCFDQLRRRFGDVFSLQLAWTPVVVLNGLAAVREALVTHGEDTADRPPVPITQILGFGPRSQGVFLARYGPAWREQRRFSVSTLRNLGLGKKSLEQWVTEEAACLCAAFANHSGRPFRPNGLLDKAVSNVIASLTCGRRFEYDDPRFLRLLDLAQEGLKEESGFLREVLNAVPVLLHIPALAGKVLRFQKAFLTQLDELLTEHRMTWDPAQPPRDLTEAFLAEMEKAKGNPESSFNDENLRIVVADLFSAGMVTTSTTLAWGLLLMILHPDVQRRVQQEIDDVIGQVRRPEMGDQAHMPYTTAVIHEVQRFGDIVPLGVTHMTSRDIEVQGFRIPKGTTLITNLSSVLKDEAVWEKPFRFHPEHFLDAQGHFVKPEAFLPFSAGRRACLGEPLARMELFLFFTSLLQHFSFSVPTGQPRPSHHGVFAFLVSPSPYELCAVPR
T2 sequence (P20813 whole entry): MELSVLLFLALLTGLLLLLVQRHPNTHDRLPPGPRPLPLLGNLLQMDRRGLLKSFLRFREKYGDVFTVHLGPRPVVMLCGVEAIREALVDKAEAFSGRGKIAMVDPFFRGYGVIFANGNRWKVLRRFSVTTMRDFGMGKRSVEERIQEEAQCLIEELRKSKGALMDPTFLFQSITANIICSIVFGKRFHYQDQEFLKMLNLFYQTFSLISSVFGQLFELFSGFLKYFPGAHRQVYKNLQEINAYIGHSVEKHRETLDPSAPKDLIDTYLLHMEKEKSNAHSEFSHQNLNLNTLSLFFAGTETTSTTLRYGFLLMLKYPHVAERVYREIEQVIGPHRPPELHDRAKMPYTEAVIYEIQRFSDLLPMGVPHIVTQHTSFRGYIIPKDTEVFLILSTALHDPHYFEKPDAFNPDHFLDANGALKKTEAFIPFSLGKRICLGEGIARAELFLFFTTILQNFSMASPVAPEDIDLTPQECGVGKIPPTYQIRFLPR

CC12CCC(O)CC1=CCC1C2CCC2(C)C1CCC21CC1C=CBr [ENT-A013, (2′R,3S,17S)-2′-(2-Bromovinyl)-5-Androstene-17,1′-Cyclopropan-3-ol]
CYP450 inhibition (in words) (CYP1A2): weak inhibitor
CYP450 inhibition (in words) (CYP2B6): weak inhibitor
CYP450 inhibition (in words) (CYP2C9): weak inhibitor
CYP450 inhibition (in words) (CYP2D6): moderate inhibition
TrkB phosphorylation (in words) (TrkB): did not induce phosphorylation

Source: publication PMC8945229, “Development and Biological Characterization of a Novel Selective TrkA Agonist with Neuroprotective Properties against Amyloid Toxicity” (Biomedicines, 2022)
